Tests used:
[1] = biological target: T1, Progesterone Receptor PR-B (Homo sapiens, UniProt P06401); assay: Agonism of Progesterone Receptor PR-B, transactivation assay; format: cell-based; settings: PR-B transactivation assay as in Fuhrmann et al.
T1 construct: expressed in transfected cells; From own knowledge of the cited Fuhrmann et al. 2000: SK-N-MC cells stably transfected with PR-B and an MMTV-luciferase reporter
T1 sequence (P06401 1-933): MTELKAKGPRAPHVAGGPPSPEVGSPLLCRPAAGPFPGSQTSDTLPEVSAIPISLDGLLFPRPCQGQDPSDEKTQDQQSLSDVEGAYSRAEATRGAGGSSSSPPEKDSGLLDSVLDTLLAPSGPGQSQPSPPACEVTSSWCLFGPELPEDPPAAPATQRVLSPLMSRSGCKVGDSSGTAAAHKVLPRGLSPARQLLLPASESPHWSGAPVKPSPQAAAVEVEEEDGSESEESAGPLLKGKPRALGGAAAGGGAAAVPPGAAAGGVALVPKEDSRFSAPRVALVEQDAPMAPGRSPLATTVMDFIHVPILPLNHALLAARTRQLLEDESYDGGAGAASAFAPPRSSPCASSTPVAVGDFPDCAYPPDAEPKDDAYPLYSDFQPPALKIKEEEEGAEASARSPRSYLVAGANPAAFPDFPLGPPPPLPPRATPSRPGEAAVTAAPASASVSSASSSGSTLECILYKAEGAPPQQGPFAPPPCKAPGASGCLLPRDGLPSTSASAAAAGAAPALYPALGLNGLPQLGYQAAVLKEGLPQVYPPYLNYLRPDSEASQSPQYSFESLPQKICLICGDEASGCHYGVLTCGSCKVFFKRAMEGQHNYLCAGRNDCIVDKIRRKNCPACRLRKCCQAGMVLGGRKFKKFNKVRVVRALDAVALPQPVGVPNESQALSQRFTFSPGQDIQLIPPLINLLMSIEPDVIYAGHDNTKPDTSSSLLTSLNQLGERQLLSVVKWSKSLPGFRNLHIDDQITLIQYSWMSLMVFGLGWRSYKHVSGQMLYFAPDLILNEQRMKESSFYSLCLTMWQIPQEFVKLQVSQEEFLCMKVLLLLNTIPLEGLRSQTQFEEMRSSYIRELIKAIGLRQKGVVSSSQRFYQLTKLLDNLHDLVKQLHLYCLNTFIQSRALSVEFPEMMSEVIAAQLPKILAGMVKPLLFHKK
Procedure: Agonism of Progesterone Receptor PR-B
The transactivation assay is performed as described in Fuhrmann et al. (Fuhrmann, U.; Hess-Stump, H.; Cleve, A.; Neef, G.; Schwede, W.; Hoffmann, J.; Fritzemeier, K.-H., Chwalisz, K.; Journal of Medicinal Chem., 43, 26, 2000, 5010-5016).

[2] = biological target: T1, Progesterone Receptor PR-B; assay: Antagonism of Progesterone Receptor PR-B, transactivation assay; format: cell-based; settings: PR-B transactivation assay as in WO 02/054064; for IC50: read-out: Antagonistic activity IC50
Procedure: Antagonism of Progesterone Receptor PR-B
The transactivation assay is performed as described in WO 02/054064.

| SMILES | Agonistic activity Efficacy [1] | Antagonistic activity Efficacy [2] | IC50 [2] | EC50 ([1]; read-out: Agonistic activity EC50) |
| --- | --- | --- | --- | --- |
| O=C1OCc2cc(NC(=O)C(O)(C#CCO)CC3(c4cc(C(F)(F)F)ccc4F)CC3)ccc21 (racemic) [Example 13, rac-5-{2-Hydroxy-3-[1-(2-fluoro-5-trifluoromethylphenyl)-cyclopropyl]-2-[(3-hydroxy)propin-1-yl]-propionylamino}phthalide] | 7% | 92% | 3 nM | – |
| CCCC#CC(O)(CC1(c2cc(C(F)(F)F)ccc2F)CC1)C(=O)Nc1ccc2c(c1)COC2=O (racemic) [Example 9, rac-5-{2-Hydroxy-3-[1-(2-fluoro-5-trifluoromethylphenyl)-cyclopropyl]-2-(pentin-1-yl)-propionylamino}phthalide] | 3% | 96% | 3 nM | – |
| O=C1OCc2cc(NC(=O)C(O)(C#Cc3ccc(O)cc3)CC3(c4cc(C(F)(F)F)ccc4F)CC3)ccc21 (racemic) [Example 7, rac-5-{2-Hydroxy-2-[(4-hydroxyphenyl)ethinyl]-3-[1-(2-fluoro-5-trifluoromethylphenyl)-cyclopropyl]-propionylamino}phthalide] | 11% | 82% | 4 nM | 2 nM |
| O=C1OCc2cc(NC(=O)C(O)(C#Cc3ccccc3)CC3(c4cc(C(F)(F)F)ccc4F)CC3)ccc21 (single isomer, unassigned; (-)) [Example 3b, (−)-5-{2-Hydroxy-3-[1-(2-fluoro-5-trifluoromethylphenyl)-cyclopropyl]-2-(phenylethinyl)-propionylamino}phthalide] | 2% | 97% | 0.4 nM | – |

— US7408060B2, “Nonsteroidal progesterone receptor modulators” (Schering AG, priority 2005, dated 2008)
